Results reported in patent US20260184675A1, “CHIRAL ISOMERIC SULFITE COMPOUND AND APPLICATION THEREOF” (Chengdu Hanova BioSciences Co., Ltd, priority 2024, published 2026).

Assays:
[1] = tested on: eggs of Spodoptera litura; assay: Effect on hatching of eggs of Spodoptera litura, egg piece soaking; assay type: in vivo; details: 500 ppm; for Hatching rate (%), Replicate 1 / Hatching rate (%), Replicate 2 / Hatching rate (%), Replicate 3 / Number of unhatched larvae 4 days after insecticide delivery, Replicate 1 / Number of unhatched larvae 4 days after insecticide delivery, Replicate 2 / Number of unhatched larvae 4 days after insecticide delivery, Replicate 3: Spodoptera litura eggs; for Hatching rate (%), Replicate 1 / Hatching rate (%), Replicate 2 / Hatching rate (%), Replicate 3: 4 days after delivery; for Number of unhatched larvae 4 days after insecticide delivery, Replicate 1 / Number of unhatched larvae 4 days after insecticide delivery, Replicate 2 / Number of unhatched larvae 4 days after insecticide delivery, Replicate 3: soaked 10 minutes
How it was run: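 Egg pieces of about 60 eggs were soaked 10 min in test agent at 500 ppm, blotted, then held singly at 24±1 °C, 80±10% RH, 12:12 L:D. Hatched and unhatched eggs were counted on day 4 to give hatching rate and control effect; 3 replicates.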

[2] = tested on: pest eggs of Tetranychus cinnabarinus; assay: Effect on hatching of pest eggs of Tetranychus cinnabarinus, leaf disc method; assay type: in vivo; details: for Hatching rate (%): 7 days after insecticide delivery; for inhibitory effect on the hatching of pest eggs of Tetranychus cinnabarinus (in words): 1 ppm
How it was run: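 Adult female mites laid eggs on 2.0 cm Vicia faba leaf discs for up to 36 h; discs with counted eggs were dipped 10 s in compound solution or water, then kept moist. Hatched eggs were counted 7 days after treatment and control effect was calculated by formula.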

| SMILES | Hatching rate (%), Replicate 1 [1] | Hatching rate (%), Replicate 2 [1] | Hatching rate (%), Replicate 3 [1] | Number of unhatched larvae 4 days after insecticide delivery, Replicate 1 [1] | Number of unhatched larvae 4 days after insecticide delivery, Replicate 2 [1] | Number of unhatched larvae 4 days after insecticide delivery, Replicate 3 [1] | Hatching rate (%) ([2]; 0.25 mg/L, Replicate 1) | Hatching rate (%) ([2]; 0.25 mg/L, Replicate 2) | Number of hatched larvae 7 days after insecticide delivery ([2]; 0.25 mg/L, Replicate 1) | Number of hatched larvae 7 days after insecticide delivery ([2]; 0.25 mg/L, Replicate 2) | Hatching rate (%) ([2]; 0.5 mg/L, Replicate 1) | Hatching rate (%) ([2]; 0.5 mg/L, Replicate 2) | Number of hatched larvae 7 days after insecticide delivery ([2]; 0.5 mg/L, Replicate 1) | Number of hatched larvae 7 days after insecticide delivery ([2]; 0.5 mg/L, Replicate 2) | Hatching rate (%) ([2]; 1 mg/L, Replicate 1) | Hatching rate (%) ([2]; 1 mg/L, Replicate 2) | Number of hatched larvae 7 days after insecticide delivery ([2]; 1 mg/L, Replicate 1) | Number of hatched larvae 7 days after insecticide delivery ([2]; 1 mg/L, Replicate 2) | inhibitory effect on the hatching of pest eggs of Tetranychus cinnabarinus (in words) [2] | inhibitory activity on the hatching of eggs of Spodoptera litura (in words) [1] |
| --- | --- | --- | --- | --- | --- | --- | --- | --- | --- | --- | --- | --- | --- | --- | --- | --- | --- | --- | --- | --- |
| CCC(COS(=O)OCCF)Oc1ccc(Cl)cc1Cl (centres unmarked) [Compound 19′] | 32.76% | 32.14% | 35.94% | 39 | 38 | 41 | 70.21% | 73.24% | 14 | 19 | 34.72% | 34.43% | 47 | 40 | 1.89% | 0.00% | 52 | 63 | excellent inhibitory effects | – |
| CC(C)(COc1ccc(Cl)cc1Cl)OS(=O)OCCF (centres unmarked) [Compound R-10] | 60.87% | 64.15% | 62.07% | 27 | 19 | 22 | 73.21% | 74.03% | 15 | 20 | 42.67% | 41.94% | 28 | 36 | 8.11% | 6.25% | 68 | 60 | – | – |
| CC(C)(COc1ccc(Cl)cc1Cl)OS(=O)OCCF (centres unmarked) [Compound S-10] | 21.43% | 22.86% | 24.19% | 44 | 54 | 47 | 39.51% | 41.79% | 49 | 39 | 4.62% | 3.39% | 62 | 57 | 0.00% | 0.00% | 78 | 84 | excellent inhibitory effects | good inhibitory activities |
| CC(C)(COS(=O)OCCF)Oc1ccc(Cl)cc1Cl (centres unmarked) [R-10′] | 61.82% | 62.07% | 63.64% | 21 | 22 | 24 | 74.07% | 76.79% | 21 | 13 | 42.86% | 45.07% | 36 | 39 | 8.47% | 7.46% | 54 | 62 | – | – |
| CC(C)(COS(=O)OCCF)Oc1ccc(Cl)cc1Cl (centres unmarked) [S-10′] | 22.03% | 21.88% | 21.67% | 46 | 50 | 47 | 42.11% | 43.77% | 44 | 37 | 7.95% | 6.12% | 81 | 46 | 0.00% | 0.00% | 59 | 84 | excellent inhibitory effects | good inhibitory activities |
